Where “and” joins values, the source holds several entries; their conditions need not be identical. Equal values may be shown once. Read-outs that look alike come from different tables or passages of the source.
Columns and labels:
NCI-H23 = experiment: NCI screen, NCI-H23 (Non-Small Cell Lung Cancer)
Experimental: (§1) The compounds of this invention were also tested against the panel of 60 human cancer cell lines at the National Cancer Institute, Bethesda, Md. […] The cytrotoxicity studies were conducted using a 48 hour exposure, and measuring the optical density of sulforhodamide B-derived color.

SK-MEL-5 = experiment: NCI screen, SK-MEL-5 (Melanoma)
Experimental: as §1

SW-620 = experiment: NCI screen, SW-620 (Colon Cancer); assay type: cell-based, human
Experimental: as §1

SNB-75 = experiment: NCI screen, SNB-75 (CNS Cancer)
Experimental: as §1

CCRF-CEM = experiment: NCI screen, CCRF-CEM (Leukemia)
Experimental: as §1

MCF7 = experiment: NCI screen, MCF7 (Breast Cancer)
Experimental: as §1

HCC-2998 = experiment: NCI screen, HCC-2998 (Colon Cancer)
Experimental: as §1

TK-10 = experiment: NCI screen, TK-10 (Renal Cancer)
Experimental: as §1

HCT-116 = experiment: NCI screen, HCT-116 (Colon Cancer)
Experimental: as §1

HOP-62 = experiment: NCI screen, HOP-62 (Non-Small Cell Lung Cancer)
Experimental: as §1

SN12C = experiment: NCI screen, SN12C (Renal Cancer)
Experimental: as §1

SF-539 = experiment: NCI screen, SF-539 (CNS Cancer)
Experimental: as §1

MCF7/ADR-RES = experiment: NCI screen, MCF7/ADR-RES (Breast Cancer); assay type: cell-based, human; conditions: MCF7/ADR-RES
Experimental: as §1

SK-MEL-28 = experiment: NCI screen, SK-MEL-28 (Melanoma)
Experimental: as §1

HT29 = experiment: NCI screen, HT29 (Colon Cancer)
Experimental: as §1

IGROV1 = experiment: NCI screen, IGROV1 (Ovarian Cancer); assay type: cell-based, human
Experimental: as §1

CAKI-1 = experiment: NCI screen, CAKI-1 (Renal Cancer)
Experimental: as §1

NCI-H226 = experiment: NCI screen, NCI-H226 (Non-Small Cell Lung Cancer); assay type: cell-based, human
Experimental: as §1

HS 578T = experiment: NCI screen, HS 578T (Breast Cancer)
Experimental: The compounds of this invention were also tested against the panel of 60 human cancer cell lines at the National Cancer Institute, Bethesda, Md. (44). The cytrotoxicity studies were conducted using a 48 hour exposure, and measuring the optical density of sulforhodamide B-derived color.

`O=C(Nc1cc(O)ccc1CCCl)c1cc2cc(NC(=O)c3cc4ccccc4o3)ccc2[nH]1` [Compound 1, 4-(2-Chloroethyl)-3-[5-(5-benzofuran-2-carboxamido)indole-2-carboxamido]phenol] was tested, and the GI50 (NCI-H23) was 1670 nM, the TGI (NCI-H23) was 3.38E−06 Molar and the “Percent Growth” value (NCI-H23; Log10 Concentration −4.0) was −61%. The GI50 (SK-MEL-5) was 1730 nM, the TGI (SK-MEL-5) was 3.34E−06 Molar and the “Percent Growth” value (SK-MEL-5; Log10 Concentration −4.0) was −97%. The “Percent Growth” value (SK-MEL-5; Log10 Concentration −6.0) was 92%, the “Percent Growth” value (SK-MEL-5; Log10 Concentration −7.0) was 104% and the GI50 (SW-620) was 2010 nM. For the same compound, the TGI (SW-620) was 8.19E−06 Molar, the “Percent Growth” value (SW-620; Log10 Concentration −4.0) was −66% and the “Percent Growth” value (SW-620; Log10 Concentration −8.0) was 96%. The “Percent Growth” value (SNB-75) was 65% and 56% and 93%, the GI50 (SNB-75; SNB-75) was 18600 nM and the TGI (SNB-75; SNB-75) was 3.32E−05 Molar. For the same compound, the “Percent Growth” value (SNB-75; SNB-75, Log10 Concentration −4.0) was −96%, the GI50 (CCRF-CEM) was 1260 nM and the TGI (CCRF-CEM) was 5.28E−06 Molar. For the same compound, the “Percent Growth” value (CCRF-CEM; Log10 Concentration −4.0) was −13%, the GI50 (MCF7) was 1030 nM and the TGI (MCF7) was 2.27E−06 Molar. The “Percent Growth” value (MCF7; Log10 Concentration −4.0) was −100%, the “Percent Growth” value (MCF7; Log10 Concentration −8.0) was 111% and the GI50 (HCC-2998) was 1760 nM. For the same compound, the TGI (HCC-2998) was 3.56E−06 Molar, the “Percent Growth” value (HCC-2998; Log10 Concentration −4.0) was −97% and the “Percent Growth” value (HCC-2998; Log10 Concentration −7.0) was 97%. For the same compound, the “Percent Growth” value (HCC-2998; Log10 Concentration −8.0) was 96%, the “Percent Growth” value (TK-10) was −31% and the GI50 (TK-10; TK-10) was 2450 nM. For the same compound, the TGI (TK-10; TK-10) was 5.85E−06 Molar, the “Percent Growth” value (TK-10; TK-10, Log10 Concentration −4.0) was −95% and the “Percent Growth” value (TK-10; TK-10, Log10 Concentration −6.0) was 101%. The “Percent Growth” value (TK-10; TK-10, Log10 Concentration −7.0) was 98%, the “Percent Growth” value (TK-10; TK-10, Log10 Concentration −8.0) was 104% and the “Percent Growth” value (HCT-116) was 81% and 99%. For the same compound, the GI50 (HCT-116; HCT-116) was 1940 nM, the TGI (HCT-116; HCT-116) was 5.73E−06 Molar and the “Percent Growth” value (HCT-116; HCT-116, Log10 Concentration −4.0) was −89%. The “Percent Growth” value (HCT-116; HCT-116, Log10 Concentration −5.0) was −26%, the “Percent Growth” value (HCT-116; HCT-116, Log10 Concentration −7.0) was 95% and the GI50 (HOP-62) was 453 nM. For the same compound, the TGI (HOP-62) was 3.07E−06 Molar, the “Percent Growth” value (HOP-62; Log10 Concentration −4.0) was −98% and the GI50 (SN12C) was 3100 nM. The TGI (SN12C) was 9.41E−06 Molar, the “Percent Growth” value (SN12C; Log10 Concentration −4.0) was −77% and the “Percent Growth” value (SN12C; Log10 Concentration −5.0) was −3%. For the same compound, the “Percent Growth” value (SN12C; Log10 Concentration −7.0) was 102%, the GI50 (SF-539) was 1920 nM and the TGI (SF-539) was 4.16E−06 Molar. For the same compound, the “Percent Growth” value (SF-539; Log10 Concentration −4.0) was −100%, the “Percent Growth” value (SF-539; Log10 Concentration −8.0) was 92% and the CC50 (RPMI-8226) was > 100000 nM. The GI50 (RPMI-8226) was 1860 nM, the “Percent Growth” value (RPMI-8226) was −41% and the TGI (RPMI-8226) was 5.59E−06 Molar. For the same compound, the GI50 (MCF7/ADR-RES) was 1650 nM, the TGI (MCF7/ADR-RES) was 3.79E−06 Molar and the “Percent Growth” value (MCF7/ADR-RES; Log10 Concentration −4.0) was −55%. The “Percent Growth” value (MCF7/ADR-RES; Log10 Concentration −5.0) was −58%, the “Percent Growth” value (MCF7/ADR-RES; Log10 Concentration −6.0) was 80% and the “Percent Growth” value (MCF7/ADR-RES; Log10 Concentration −7.0) was 97%. The “Percent Growth” value (MCF7/ADR-RES; Log10 Concentration −8.0) was 93%, the GI50 (SK-MEL-28) was 2400 nM and the TGI (SK-MEL-28) was 6.10E−06 Molar. For the same compound, the “Percent Growth” value (SK-MEL-28; Log10 Concentration −4.0) was −98%, the “Percent Growth” value (SK-MEL-28; Log10 Concentration −6.0) was 97% and the “Percent Growth” value (SK-MEL-28; Log10 Concentration −8.0) was 103%. For the same compound, the GI50 (HT29) was 2290 nM, the TGI (HT29) was 1.15E−05 Molar and the “Percent Growth” value (HT29; Log10 Concentration −4.0) was −51%. For the same compound, the “Percent Growth” value (HT29; Log10 Concentration −8.0) was 96%, the “Percent Growth” value (IGROV1) was −65% and the GI50 (IGROV1; IGROV1) was 1500 nM. For the same compound, the TGI (IGROV1; IGROV1) was 3.41E−06 Molar, the “Percent Growth” value (IGROV1; IGROV1, Log10 Concentration −4.0) was −94% and the “Percent Growth” value (IGROV1; IGROV1, Log10 Concentration −6.0) was 75%. For the same compound, the “Percent Growth” value (IGROV1; IGROV1, Log10 Concentration −7.0) was 98%, the “Percent Growth” value (IGROV1; IGROV1, Log10 Concentration −8.0) was 93% and the “Percent Growth” value (CAKI-1) was 87% and 82%. The GI50 (CAKI-1; CAKI-1) was 2300 nM, the TGI (CAKI-1; CAKI-1) was 7.19E−06 Molar and the “Percent Growth” value (CAKI-1; CAKI-1, Log10 Concentration −4.0) was −95%. For the same compound, the “Percent Growth” value (CAKI-1; CAKI-1, Log10 Concentration −5.0) was −14%, the “Percent Growth” value (CAKI-1; CAKI-1, Log10 Concentration −8.0) was 95% and the GI50 (NCI-H226) was 4090 nM. For the same compound, the TGI (NCI-H226) was 1.62E−05 Molar, the “Percent Growth” value (NCI-H226; Log10 Concentration −4.0) was −90% and the “Percent Growth” value (NCI-H226; Log10 Concentration −8.0) was 100%. For the same compound, the GI50 (HOP-92) was 2620 nM, the TGI (HOP-92) was 5.53E−06 Molar and the “Percent Growth” value (HOP-92; Log10 Concentration −4.0) was −92%. For the same compound, the “Percent Growth” value (HOP-92; Log10 Concentration −8.0) was 94%, the GI50 (NCI-H322M) was 2830 nM and the “Percent Growth” value (NCI-H322M) was 93%. For the same compound, the TGI (NCI-H322M) was 9.60E−06 Molar, the “Percent Growth” value (HS 578T) was 89% and 77% and the GI50 (HS 578T; HS 578T) was 11800 nM. The TGI (HS 578T; HS 578T) was 3.96E−05 Molar, the “Percent Growth” value (HS 578T; HS 578T, Log10 Concentration −4.0) was −38% and the “Percent Growth” value (HS 578T; HS 578T, Log10 Concentration −5.0) was 57%. The “Percent Growth” value (HS 578T; HS 578T, Log10 Concentration −7.0) was 92%.

— patent US6660742B2, “Compositions and methods of the use thereof achiral analogues of CC-1065 and the duocarmycins” (priority 2000, dated 2003)
